Data from patent US11708318B2, “Polymorphic forms of RAD1901-2HCL” (Radius Pharmaceuticals, Inc., priority 2017, dated 2023).
Entries after “also recorded” stand apart in the source; their conditions may differ. Read-outs that look alike come from different tables or passages of the source.

Tests used:
[1] = Solubility assessment of Sample 1 (majorly Form 1) in 24 solvent systems; assay type: physicochemical; conditions: for solubility: thermodynamic from solid
Procedure: Solubility assessment was carried out on the Sample 1 of RAD1901-2HCl (majorly Form 1 shown by XRPD) in 24 solvent systems in HPLC vials (sample IDs: A1 to A24). RAD1901-2HCl (25 mg) was treated with increasing volumes of solvent until the material fully dissolved or until a maximum of 60 vol had been used (Table 13).
After each addition of solvent, the system was stirred for 5 to 10 minutes at 25° C., then shaken at 50° C. for 5 to 10 minutes, and observations made. Samples were allowed to stand at room temperature for 5 min before the addition of a new aliquot of solvent. After the assessment was completed, the suspensions obtained were matured (maturation) and the clear solutions were cooled (cooling) and slowly evaporated (evaporation) as described below. All solids recovered from maturation, cooling and evaporation experiments were analyzed by high resolution XRPD.

[2] = Variable humidity XRPD (VH-XRPD); assay type: physicochemical; conditions: ~95% RH, 24 hr
Procedure: Samples run under non-ambient conditions were prepared by gently packing into a cavity, cut into a silicon wafer to obtain a flat surface and mounted onto a humidity stage with an Ansyco controller and humidity sensor positioned directly next to the sample holder. The data were collected at 298.15 K with water temperature of 35.0° C., in an angular range of 3 to 31° 2θ, with a step size of 0.025° 2θ, a collection time of 2.0 sec/step, and a collection time at each % RH was 41 min 28 sec. X-Ray Powder Diffraction (XRPD) patterns were collected at variable humidity values from 0 to 95% RH, based upon the humidity behavior of each compound observed during GVS experiments (described herein). For each Variable Humidity X-Ray Powder Diffraction (VH-XRPD) experiment performed, the % RH values selected are provided alongside the relevant experimental result. Full tables of detailing the % RH value at each collection point and the associated delay time at each value are provided in Tables 10-12. To fully characterize the polymorphic behavior of Samples 1 and 2 at variable humidity, and to collect reference XRPD patterns for the ‘pure’ anhydrous Form 1 and Form 2 material, and ‘pure’ hydrated Form 3 material, Variable Humidity (VH) XRPD experiments were conducted on Samples 1 and 2. Initially, VH-XRPD experiments were conducted using Sample 1, and XRPD diffractograms were collected at selected humidity values, in line with those collected during GVS experiments (see FIGS. 6E-6F). XRPD diffractograms were collected initially at ambient RH, then collected over 24 hours at ˜95% RH and finally collected during desorption steps to 0% RH and over 10 hours at 0% RH (see FIG. 4C). […]

solubility ([1]; acetonitrile, 50 °C, organic solvent or mixture, Acetonitrile, sample ID A19, read-out: Solubility assessment 20 vol.): < 50 mg/mL
solubility ([1]; acetonitrile, 50 °C, organic solvent or mixture, Acetonitrile, sample ID A19, read-out: Solubility assessment 40 vol.): < 25 mg/mL
solubility ([1]; acetonitrile, 50 °C, organic solvent or mixture, Acetonitrile, sample ID A19, read-out: Solubility assessment 60 vol.): < 16.7 mg/mL
solubility ([1]; dichloromethane, 50 °C, organic solvent or mixture, Dichloromethane, sample ID A18, read-out: Solubility assessment 10 vol.): < 100 mg/mL
solubility ([1]; dichloromethane, 50 °C, organic solvent or mixture, Dichloromethane, sample ID A18, read-out: Solubility assessment 20 vol.): < 50 mg/mL
solubility ([1]; dichloromethane, 50 °C, organic solvent or mixture, Dichloromethane, sample ID A18, read-out: Solubility assessment 40 vol.): < 25 mg/mL
solubility ([1]; dichloromethane, organic solvent or mixture, Dichloromethane, sample ID A18, read-out: Solubility assessment 60 vol.): < 16.7 mg/mL
solubility ([1]; dimethyl sulfoxide, 50 °C, organic solvent or mixture, Dimethyl sulfoxide, sample ID A11, read-out: Solubility assessment 10 vol.): > 100 mg/mL
solubility ([1]; ethanol, 50 °C, organic solvent or mixture, Ethanol, sample ID A10, read-out: Solubility assessment 10 vol.): < 100 mg/mL
solubility ([1]; ethanol, 50 °C, organic solvent or mixture, Ethanol, sample ID A10, read-out: Solubility assessment 20 vol.): < 50 mg/mL
solubility ([1]; ethanol, 50 °C, organic solvent or mixture, Ethanol, sample ID A10, read-out: Solubility assessment 40 vol.): < 25 mg/mL
solubility ([1]; ethanol, organic solvent or mixture, Ethanol, sample ID A10, read-out: Solubility assessment 60 vol.): < 16.7 mg/mL
solubility ([1]; ethyl acetate, 50 °C, organic solvent or mixture, Ethyl acetate, sample ID A3, read-out: Solubility assessment 10 vol.): < 100 mg/mL
solubility ([1]; ethyl acetate, 50 °C, organic solvent or mixture, Ethyl acetate, sample ID A3, read-out: Solubility assessment 20 vol.): < 50 mg/mL
solubility ([1]; ethyl acetate, 50 °C, organic solvent or mixture, Ethyl acetate, sample ID A3, read-out: Solubility assessment 40 vol.): < 25 mg/mL
solubility ([1]; ethyl acetate, organic solvent or mixture, Ethyl acetate, sample ID A3, read-out: Solubility assessment 60 vol.): < 16.7 mg/mL
solubility ([1]; isopropyl acetate, 50 °C, organic solvent or mixture, Isopropyl acetate, sample ID A4, read-out: Solubility assessment 10 vol.): < 100 mg/mL
solubility ([1]; isopropyl acetate, 50 °C, organic solvent or mixture, Isopropyl acetate, sample ID A4, read-out: Solubility assessment 20 vol.): < 50 mg/mL
solubility ([1]; isopropyl acetate, 50 °C, organic solvent or mixture, Isopropyl acetate, sample ID A4, read-out: Solubility assessment 40 vol.): < 25 mg/mL
solubility ([1]; isopropyl acetate, organic solvent or mixture, Isopropyl acetate, sample ID A4, read-out: Solubility assessment 60 vol.): < 16.7 mg/mL
solubility ([1]; methanol, 50 °C, organic solvent or mixture, Methanol, sample ID A20, read-out: Solubility assessment 10 vol.): 50 to 100 mg/mL
solubility ([1]; methanol, 50 °C, organic solvent or mixture, Methanol, sample ID A20, read-out: Solubility assessment 20 vol.): 50 to 100 mg/mL
solubility ([1]; n-heptane, 50 °C, organic solvent or mixture, n-Heptane, sample ID A1, read-out: Solubility assessment 10 vol.): < 100 mg/mL
solubility ([1]; n-heptane, 50 °C, organic solvent or mixture, n-Heptane, sample ID A1, read-out: Solubility assessment 20 vol.): < 50 mg/mL
solubility ([1]; n-heptane, 50 °C, organic solvent or mixture, n-Heptane, sample ID A1, read-out: Solubility assessment 40 vol.): < 25 mg/mL
solubility ([1]; n-heptane, organic solvent or mixture, n-Heptane, sample ID A1, read-out: Solubility assessment 60 vol.): < 16.7 mg/mL
solubility ([1]; nitromethane, 50 °C, organic solvent or mixture, Nitromethane, sample ID A21, read-out: Solubility assessment 10 vol.): < 100 mg/mL
solubility ([1]; nitromethane, 50 °C, organic solvent or mixture, Nitromethane, sample ID A21, read-out: Solubility assessment 20 vol.): < 50 mg/mL
solubility ([1]; nitromethane, 50 °C, organic solvent or mixture, Nitromethane, sample ID A21, read-out: Solubility assessment 40 vol.): < 25 mg/mL
solubility ([1]; nitromethane, organic solvent or mixture, Nitromethane, sample ID A21, read-out: Solubility assessment 60 vol.): < 16.7 mg/mL
solubility ([1]; propyl acetate, 50 °C, organic solvent or mixture, Propyl acetate, sample ID A2, read-out: Solubility assessment 10 vol.): < 100 mg/mL
solubility ([1]; propyl acetate, 50 °C, organic solvent or mixture, Propyl acetate, sample ID A2, read-out: Solubility assessment 20 vol.): < 50 mg/mL
solubility ([1]; propyl acetate, 50 °C, organic solvent or mixture, Propyl acetate, sample ID A2, read-out: Solubility assessment 40 vol.): < 25 mg/mL
solubility ([1]; propyl acetate, organic solvent or mixture, Propyl acetate, sample ID A2, read-out: Solubility assessment 60 vol.): < 16.7 mg/mL
solubility ([1]; tetrahydrofuran, 50 °C, organic solvent or mixture, Tetrahydrofuran, sample ID A17, read-out: Solubility assessment 10 vol.): < 100 mg/mL
solubility ([1]; tetrahydrofuran, 50 °C, organic solvent or mixture, Tetrahydrofuran, sample ID A17, read-out: Solubility assessment 20 vol.): < 50 mg/mL
solubility ([1]; tetrahydrofuran, 50 °C, organic solvent or mixture, Tetrahydrofuran, sample ID A17, read-out: Solubility assessment 40 vol.): < 25 mg/mL
solubility ([1]; tetrahydrofuran, organic solvent or mixture, Tetrahydrofuran, sample ID A17, read-out: Solubility assessment 60 vol.): < 16.7 mg/mL
solubility ([1]; toluene, 50 °C, organic solvent or mixture, Toluene, sample ID A15, read-out: Solubility assessment 10 vol.): < 100 mg/mL
solubility ([1]; toluene, 50 °C, organic solvent or mixture, Toluene, sample ID A15, read-out: Solubility assessment 20 vol.): < 50 mg/mL
solubility ([1]; toluene, 50 °C, organic solvent or mixture, Toluene, sample ID A15, read-out: Solubility assessment 40 vol.): < 25 mg/mL
solubility ([1]; toluene, organic solvent or mixture, Toluene, sample ID A15, read-out: Solubility assessment 60 vol.): < 16.7 mg/mL
solubility ([1]; water, 50 °C, water, Water, sample ID A12, read-out: Solubility assessment 10 vol.): 50 to 100 mg/mL
solubility ([1]; water, 50 °C, water, Water, sample ID A12, read-out: Solubility assessment 20 vol.): 50 to 100 mg/mL
Structure (SMILES): CCNCCc1ccc(CN(CC)c2cc(OC)ccc2[C@@H]2CCc3cc(O)ccc3C2)cc1.Cl.Cl [Sample 1]
Solubility in water ([1]; water): highly soluble; also recorded: high solubility
VH-XRPD at ~95% RH over 24 hr [2]: slow conversion towards the hydrated state; also recorded: Form 3 over 24
